# Measured values reported in article PMC5418711, “Safety and efficacy of the choline analogue SAR97276 for malaria treatment: results of two phase 2, open-label, multicenter trials in African patients” (Malaria Journal, 2017).
# “And” between values parts separate entries of the source, which are not always exact repeats. Equal entries are not always repeated. Where two headings read alike, the source gives them in different places.
# Tests used:
# P. falciparum = assay: Study 2: phase 2 randomized controlled trial, efficacy in teenagers with uncomplicated falciparum malaria; assay type: in vivo, Plasmodium falciparum; details: for Median PRR (parasite reduction ratio: parasitemia at baseline/parasitemia at 72 h): N=8, at 72 h
# Excerpt: The study was designed to enroll up to 180 participants. A randomized, controlled, age de-escalating trial design was applied in Study 2 to assess SAR97276A as a 3-day regimen administered IM to underage malaria patients. […] The study was planned to be conducted first in teenagers (age 12–17 years) and then in children (age 2–11 years).
# Study 2 only enrolled uncomplicated malaria patients with P. falciparum ≥2000 parasites/µL. Two age groups were planned: Teenager aged 12–17 years and children aged 2–11 years. SAR97276A was planned to be administered only by IM injection.
# Study duration and follow-up In both studies, study duration was 28 days for each patient including a screening period of up to 12 h before inclusion into the study. Participants were hospitalized for at least 3 days (72 h) after the start of treatment. Follow-up visits were done on day 6, 8, 14 ± 2, 21 ± 2, 28 ± 2 (Study 1); and day 7, 14 ± 2, 21 ± 2, 28 ± 2 (Study 2). Patient examination Fever measurements and thick blood smears were done every 6 h until 72 h and at each follow-up visit. Parasitemia was determined microscopically by Giemsa stained thick blood smear by two trained microscopists blinded to each other. […] Laboratory tests including hematology, biochemistry and urine analysis were done at baseline, day 2, 4, 28 (Study 1), or baseline, day 2, 4, 14, 28 (Study 2); vital signs were recorded at baseline, every 6 h until 72 h and on each follow up visit. An electrocardiogram (ECG) was done at baseline, day 4, 28 (Study 1), or baseline, 48 h, 72 h, day 28 (Study 2). For Study 2 respiratory parameters (respiratory rate, peak flow, efficiency of cough) were also checked at baseline and 30 min after first dose on day 1, 2 and 3.
# Primary endpoint consisted of two criteria: (1) parasite clearance at 72 h analyzed by thick blood smear and (2) measurement of parasite reduction ratio (PRR: parasitemia at baseline/parasitemia at 72 h).
# Sample size was calculated based on the parasite reduction ratio (PRR). Details are described in the supplementary information (see Additional file 4). PRR was calculated by: parasitemia at baseline/parasitemia at 72 h. For patients who prematurely discontinued study treatment the parasitemia at 72 h was replaced by last measurement of parasitemia or last measurement before rescue therapy for calculation of PRR at 72 h.
# Parasite clearance time (PCT), PC50 and PC90 were calculated by Kaplan–Meier method. Interim analysis was to be performed following completion of each cohort.
# Study 2: The patients were monitored up to day 28. […] The current available recommended rescue therapy as recommended by local guidelines was given. Treatment failures were described as early and late treatment failures.
# Late treatment failure was defined as development of severe malaria after day 3 after first study drug administration in presence of parasitemia, and /or parasitemia on day 4 - 14 with axillary temperature ≥ 37.5°C, and /or any additional antimalarial therapy not specified in the study protocol.
# [1] = Study 2: safety assessment (TEAEs, ECG, respiratory parameters); assay type: in vivo, human; details: for QTc interval - change from baseline Borderline: Incr. from B 30-60 ms / QTc interval - change from baseline Prolonged: Incr. from B > 60 ms / QTc interval Borderline: 431-450 ms (Boys); 451-470 ms (Girls) / QTc interval Prolonged: > 450 ms (Boys); > 470 ms (Girls) / QTc interval ≥ 500 ms: TEAE period
# Method: Study duration and follow-up In both studies, study duration was 28 days for each patient including a screening period of up to 12 h before inclusion into the study. Participants were hospitalized for at least 3 days (72 h) after the start of treatment. Follow-up visits were done on day 6, 8, 14 ± 2, 21 ± 2, 28 ± 2 (Study 1); and day 7, 14 ± 2, 21 ± 2, 28 ± 2 (Study 2). Patient examination Fever measurements and thick blood smears were done every 6 h until 72 h and at each follow-up visit. Parasitemia was determined microscopically by Giemsa stained thick blood smear by two trained microscopists blinded to each other. Safety assessment Safety analysis was based on AEs including vision assessment recorded from baseline until day 28 (in binocular conditions, for near and distant visual acuity, using standard optotypes appropriate for patient’s age and reading ability. Tests with standard corrective glasses (+3 and −3 diopters) were performed in case of visual adverse events, to assess whether vision improved or worsened with corrective glasses). Laboratory tests including hematology, biochemistry and urine analysis were done at baseline, day 2, 4, 28 (Study 1), or baseline, day 2, 4, 14, 28 (Study 2); vital signs were recorded at baseline, every 6 h until 72 h and on each follow up visit. An electrocardiogram (ECG) was done at baseline, day 4, 28 (Study 1), or baseline, 48 h, 72 h, day 28 (Study 2). For Study 2 respiratory parameters (respiratory rate, peak flow, efficiency of cough) were also checked at baseline and 30 min after first dose on day 1, 2 and 3.
# Treatment emergent adverse events (TEAEs) were defined as AEs that developed or worsened during the treatment period until day 6 following the end of study treatment.
# malaria mouse model = tested on: malaria mouse model; parameters: method as in PMID 11847346, PMID 15492221, PMID 12878525; details: cited from earlier work; for Curative 4-day dose: mouse model
# [2] = Group 2A: 3 days IM once daily 0.5 mg/kg, N=8
# [3] = Group 2B: 3 days IM twice daily 0.25 mg/kg, N=8
# [4] = Group 2A: 3 days IM once daily 0.5 mg/kg, teenagers, N=8
# [5] = Group 2A: 3 days IM once daily 0.5 mg/kg, teenagers, N=8, baseline 205
# [6] = Group 2A: 3 days IM once daily 0.5 mg/kg, teenagers
# [7] = Group 2B: 3 days IM twice daily 0.25 mg/kg, teenagers, N=8
# [8] = Group 2B: 3 days IM twice daily 0.25 mg/kg, teenagers, N=8, baseline 185
# [9] = Group 2B: 3 days IM twice daily 0.25 mg/kg, teenagers
compound,measurement,setting,value
Cc1c(CCO)sc[n+]1CCCCCCCCCCCC[n+]1csc(CCO)c1C [SAR97276A],Early treatment failures,P. falciparum; [2],4
same,Late treatment failures,P. falciparum; [2],3
same,Patients classified as treatment failures,P. falciparum; [2],7/8
same,Patients who received rescue treatment during the trial,P. falciparum; [2],8/8
same,Median PRR (parasite reduction ratio: parasitemia at baseline/parasitemia at 72 h),P. falciparum; Group 2A: 3 days IM once daily 0.5 mg/kg,22.5 (0.4–6280.0)
same,Parasitemia between 6 and 12 h after the start of treatment,"P. falciparum; Group 2A: 3 days IM once daily 0.5 mg/kg, not seen in the other groups",Increase of parasitemia
same,Early treatment failures,P. falciparum; [3],4
same,Late treatment failures,P. falciparum; [3],1
same,Patients classified as treatment failures,P. falciparum; [3],5/8
same,Patients who received rescue treatment during the trial,"P. falciparum; Group 2B: 3 days IM twice daily 0.25 mg/kg, N=8, 0.25 mg/kg",5 out of 8 and 5/8
same,Median PRR (parasite reduction ratio: parasitemia at baseline/parasitemia at 72 h),P. falciparum; Group 2B: 3 days IM twice daily 0.25 mg/kg,12.0 (0.3–83.1)
same,Patients with TEAE leading to treatment discontinuation,[1]; [4],2 (25%)
same,Patients with any TEAE,[1]; [4],8 (100%)
same,Patients with any serious AE,[1]; [4],4 (50%)
same,TEAE: Decreased appetite,[1]; [4],0
same,TEAE: Gastrointestinal disorders,[1]; [4],4 (50%)
same,TEAE: Headache,[1]; [4],0
same,TEAE: Hepatitis B,[1]; [4],1 (13%)
same,TEAE: Jaundice,[1]; [4],1 (13%)
same,TEAE: Lacrimation increased,[1]; [4],1 (13%)
same,TEAE: Malaria,[1]; [4],7 (88%)
same,TEAE: Neutropenia,[1]; [4],0
same,TEAE: Pyrexia,[1]; [4],0
same,TEAE: Vertigo,[1]; [4],1 (12.5%)
same,TEAE: Vision blurred,[1]; [4],1 (13%)
same,"Peakflow, change from baseline on D1 0.30 h",[1]; [5],-15.0 median L/min
same,"Peakflow, change from baseline on D2 24.30 h",[1]; [5],4.0 median L/min
same,"Peakflow, change from baseline on D23 48.30 h",[1]; [5],45.0 median L/min
same,QTc interval - change from baseline Borderline: Incr. from B 30-60 ms,[1]; [6],2/8
same,QTc interval - change from baseline Prolonged: Incr. from B > 60 ms,[1]; [6],0/8
same,QTc interval Borderline: 431-450 ms (Boys); 451-470 ms (Girls),[1]; [6],3/8
same,QTc interval Prolonged: > 450 ms (Boys); > 470 ms (Girls),[1]; [6],0/8
same,QTc interval ≥ 500 ms,[1]; [6],0/8
same,Patients with TEAE leading to treatment discontinuation,[1]; [7],2 (25%)
same,Patients with any TEAE,[1]; [7],5 (63%)
same,Patients with any serious AE,[1]; [7],2 (25%)
same,TEAE: Decreased appetite,[1]; [7],1 (13%)
same,TEAE: Gastrointestinal disorders,[1]; [7],1 (13%)
same,TEAE: Headache,[1]; [7],0
same,TEAE: Jaundice,[1]; [7],0
same,TEAE: Lacrimation increased,[1]; [7],0
same,TEAE: Malaria,[1]; [7],4 (50%)
same,TEAE: Neutropenia,[1]; [7],2 (25%)
same,TEAE: Pyrexia,[1]; [7],0
same,TEAE: Vertigo,[1]; [7],0
same,TEAE: Vision blurred,[1]; [7],0
same,"Peakflow, change from baseline on D1 0.30 h",[1]; [8],2.5 median L/min
same,"Peakflow, change from baseline on D2 24.30 h",[1]; [8],5.0 median L/min
same,"Peakflow, change from baseline on D23 48.30 h",[1]; [8],-10.0 median L/min
same,QTc interval - change from baseline Borderline: Incr. from B 30-60 ms,[1]; [9],0/8
same,QTc interval - change from baseline Prolonged: Incr. from B > 60 ms,[1]; [9],0/8
same,QTc interval Borderline: 431-450 ms (Boys); 451-470 ms (Girls),[1]; [9],2/8
same,QTc interval Prolonged: > 450 ms (Boys); > 470 ms (Girls),[1]; [9],2/8
same,QTc interval ≥ 500 ms,[1]; [9],0/8
same,Overall safety profile,[1]; Study 2,good
same,"Patients with a TEAE who discontinued study treatment and received rescue treatment, total",[1]; Study 2,Four
same,Respiratory parameters: untoward effect,[1]; Study 2,no indication for an untoward effect
same,SAEs: relation to study treatment,[1]; Study 2,not related
same,"Patients who had a SAE, total","[1]; Study 2, all in the SAR97276A treatment groups",6
same,Neutrophil count in the two patients with neutropenia who discontinued treatment,"[1]; Study 2, day 2, returned to normal values at 72 h after treatment start",0.99 giga/L and 0.91 giga/L
same,Patients with a SAE with persistence of uncomplicated malaria,"[1]; Study 2, of six SAE patients",five
same,Efficacy in malaria mouse model,malaria mouse model,highly efficacious
same,Curative 4-day dose,malaria mouse model; orally,20 to 45 mg/kg/day
same,Curative 4-day dose,malaria mouse model; parenterally,1 mg/kg/day
